Data taken from article PMC7598702, “Phenolome of Asian Agrimony Tea (Agrimonia asiatica Juz., Rosaceae): LC-MS Profile, α-Glucosidase Inhibitory Potential and Stability” (Foods, 2020).

Tests used:
α-glucosidase [1] = system: α-glucosidase; parameters: method as in PMID 28045450; conditions: agrimoniin from Comarum palustre herb extract; cited from earlier work
α-glucosidase [2] = assay: HPLC activity-based profiling (microfractionation) of A. asiatica extract for α-glucosidase inhibition; type: biochemical, Saccharomyces cerevisiae; conditions: microfractions of A. asiatica extract, main inhibition window 11.5 to 13.5 min
Procedure: Aliquots (100 µL) of A. asiatica extract solution (10 mg/mL) were separated under analytical HPLC conditions as described in Section 2.4. The collection of eluates (40 µL) performed every 30 s in 96-well plates. After drying and redissolving the eluates in 10 µL of PBS the eluates were investigated as described earlier. α-Glucosidase was dissolved in PBS which contained BSA (0.2%) up to 0.5 U/mL concentration and then added 125 µL of PBS and 60 µL p-nitrophenyl-α-D-glucopyranoside (5 mM). The samples were incubated at 37 °C for 5 min and then 60 µL α-glucosidase (0.4 U/mL) was added. The samples were incubated at 37 °C for 15 min. Then 50 µL sodium carbonate (200 mM) was added. Absorbance (A400) was determined at 400 nm. The rates (1-A400) were carried out to create HPLC-based bioactivity profiles of A. asiatica extract.
To characterize the chemical profile of A. asiatica herb extract microcolumn reversed-phase HPLC-PDA procedure was applied (Figure 3a). […] For identification, the components of interest of A. asiatica herb with high α-glucosidase inhibitory activity, the extract was subjected by HPLC activity-based profiling. To detect of anti-α-glucosidase inhibitors in A. asiatica herb extract, the procedure of small-scale semi-preparative microfractionation by reversed-phase HPLC was applied. […] Subsequently, microfractions were dried and redissolved in a buffer solution. Thereafter, an enzyme solution was added to estimate the inhibition of α-glucosidase by the eluate.

[3] = Stability of A. asiatica phenolics in water media (infusions and decoctions, HPLC-MS quantification); type: physicochemical; conditions: boiling infusion (100 °C) and decoctions
Procedure: Quantification of compounds 1–60 were carried out using HPLC-MS data (full scan MS, peak area). The quantifications were realized under the conditions specified in Section 2.4. For the preparation of the stock solutions, 44 reference compounds (2, 6–16, 19, 23, 26, 28, 31–51, 53–56, 58–60) were carefully weighed (10 mg), then separately dissolved in methanol in a W flask (10 mL). An external standard calibration curve was constructed with the use of six data points (100, 50, 25, 10, 5, and 1 µg/mL). The calibration curves were constructed by plotting the MS peak area vs. concentration levels. Correlation coefficients, r^2; standard deviation, SYX; limits of detection, LOD; limits of quantification, LOQ; linear ranges were computed applying early reference. All analyses were performed in triplicate, data obtained were expressed as mean value ± standard deviation (SD). […] The weight of the tube was reduced to an initial sign after cooling. For analysis, the extract obtained was filtered through 0.22 μm polytetrafluoroethylene (PTFE) syringe filter and then injected into the HPLC system. […]

Compound | α-glucosidase inhibition of HPLC peaks (α-glucosidase [2]) | content change on heat treatment in water [3] | other results
O=C(O[C@H]1O[C@@H]2COC(=O)c3cc(O)c(O)c(O)c3-c3c(cc(O)c(O)c3O)C(=O)O[C@H]2[C@@H]2OC(=O)c3cc(O)c(O)c(O)c3-c3c(cc(O)c(O)c3O)C(=O)O[C@@H]12)c1cc(O)c(O)c(Oc2c(C(=O)O[C@H]3O[C@@H]4COC(=O)c5cc(O)c(O)c(O)c5-c5c(cc(O)c(O)c5O)C(=O)O[C@H]4[C@@H]4OC(=O)c5cc(O)c(O)c(O)c5-c5c(cc(O)c(O)c5O)C(=O)O[C@@H]34)cc(O)c(O)c2O)c1 [Compound 36, Agrimoniin] | most pronounced inhibition | – | inhibitory activity relative to α-glucosidase (α-glucosidase [1]): high inhibitory activity
O=c1oc2c(O)c(O)cc3c(=O)oc4c(O)c(O)cc1c4c23 [Compound 38, Ellagic acid] | less significant results of inhibition | – | –
O=c1c(O[C@@H]2O[C@H](CO)[C@@H](O)[C@H](O)[C@H]2O)c(-c2ccc(O)c(O)c2)oc2cc(O)cc(O)c12 [Compound 41, Quercetin-3-O-glucoside] | – | – | α-glucosidase inhibition of HPLC peaks (α-glucosidase [2]; listed as isoquercitrin): less significant results of inhibition
O=C(O)CC(=O)OC[C@H]1O[C@@H](Oc2c(-c3ccc(O)c(O)c3)oc3cc(O)cc(O)c3c2=O)[C@H](O)[C@@H](O)[C@@H]1O [Compound 45, Quercetin-3-O-(6″-O-malonyl)-glucoside] | – | decreased to trace amounts | –
O=C(O)CC(=O)OCC1OC(Oc2cc(-c3cc(=O)c4c(O)cc(O)cc4o3)ccc2O)C(O)C(O)C1O (stereo not drawn) [Compound 53, Luteolin-3-O-(6″-O-malonyl)-glucoside] | – | decreased to trace amounts | –
